# Legend:
# Assay in all cases: normalised viability (% of control), CellTiter-Blue; higher = more viable cells (about 100 = DMSO control)
# Settings in all cases: incubation time: 72 h
# [1] = test system: CAL-51
# Description: (§1)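 DSRT, CellTiter-Blue viability, 72 h incubation. Signal is normalised to DMSO and benzethonium chloride controls. Value is the normalised response at dose 6.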
# [2] = test system: CAL-148
# Description: as §1
# [3] = test system: CAL-85-1
# Description: as §1
# [4] = test system: MDA-MB-453
# Description: as §1
# [5] = test system: DU-4475
# Description: as §1
# [6] = test system: HDQ-P1
# Description: as §1
# [7] = test system: MDA-MB-436
# How it was run: (§2)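 Each value is normalised viability at a single listed concentration of the series. Breast cancer cell lines in 384-well plates were incubated 72 h with compound and read by CellTiter-Blue fluorescence at 560/590 nm, with vehicle set to 100 and a positive kill control to 0 on every plate.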
# [8] = test system: CAL-51; remark: listed apart in the source
# How it was run: as §2
# [9] = test system: MFM-223
# How it was run: as §2
# [10] = test system: CAL-85-1; remark: listed apart in the source
# How it was run: as §2
# [11] = test system: Hs578T
# How it was run: as §2
# [12] = test system: BT-474
# How it was run: as §2
# [13] = test system: DU-4475; remark: listed apart in the source
# How it was run: as §2
# [14] = test system: BT-549
# How it was run: as §2
# [15] = test system: SK-BR-3
# How it was run: as §2
# [16] = test system: HDQ-P1; remark: listed apart in the source
# How it was run: as §2
# [17] = test system: CAL-51; remark: listed apart in the source
# Description: (§3)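 DSRT, CellTiter-Blue viability, 72 h incubation. Signal is normalised to DMSO and benzethonium chloride controls. Value is the normalised response at dose 8.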
# [18] = test system: CAL-148; remark: listed apart in the source
# Description: as §3
# [19] = test system: CAL-85-1; remark: listed apart in the source
# Description: as §3
# [20] = test system: MDA-MB-453; remark: listed apart in the source
# Description: as §3
# [21] = test system: DU-4475; remark: listed apart in the source
# Description: as §3
# [22] = test system: HDQ-P1; remark: listed apart in the source
# Description: as §3
# [23] = test system: CAL-51; remark: listed apart in the source
# Description: (§4)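 DSRT, CellTiter-Blue viability, 72 h incubation. Signal is normalised to DMSO and benzethonium chloride controls. Value is the normalised response at dose 9.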
# [24] = test system: CAL-148; remark: listed apart in the source
# Description: as §4
# [25] = test system: CAL-85-1; remark: listed apart in the source
# Description: as §4
# [26] = test system: MDA-MB-453; remark: listed apart in the source
# Description: as §4
# [27] = test system: DU-4475; remark: listed apart in the source
# Description: as §4
# [28] = test system: HDQ-P1; remark: listed apart in the source
# Description: as §4
structure (smiles),measurement,setting,value
O=C(O)C1(C(=O)O)CCC1.[NH2-].[NH2-].[Pt+2] [Carboplatin],normalised viability,[1]; 300 nM,106%
same,normalised viability,[2]; 300 nM,106%
same,normalised viability,[3]; 300 nM,86.1%
same,normalised viability,[4]; 300 nM,107%
same,normalised viability,[5]; 300 nM,87.6%
same,normalised viability,[6]; 300 nM,87.6%
same,normalised viability,[7]; 100 nM,93.3%
same,normalised viability,[8]; 10 nM,100%
same,normalised viability,[9]; 100 nM,88%
same,normalised viability,[10]; 10 nM,87.3%
same,normalised viability,[11]; 100 nM,96%
same,normalised viability,[12]; 100 nM,116%
same,normalised viability,[13]; 10 nM,98.9%
same,normalised viability,[14]; 100 nM,101%
same,normalised viability,[15]; 100 nM,91.1%
same,normalised viability,[16]; 10 nM,96.6%
same,normalised viability,[17]; 3000 nM,115%
same,normalised viability,[18]; 3000 nM,86%
same,normalised viability,[19]; 3000 nM,87.7%
same,normalised viability,[20]; 3000 nM,105%
same,normalised viability,[21]; 3000 nM,107%
same,normalised viability,[22]; 3000 nM,86%
same,normalised viability,[23]; 10000 nM,42.3%
same,normalised viability,[24]; 10000 nM,44.6%
same,normalised viability,[25]; 10000 nM,56.2%
same,normalised viability,[26]; 10000 nM,25.9%
same,normalised viability,[27]; 10000 nM,63.2%
same,normalised viability,[28]; 10000 nM,122%
COc1cc2c(Oc3ccc4[nH]c(C)cc4c3F)ncnc2cc1OCCCN1CCCC1 [Cediranib],normalised viability,[1]; 30 nM,86%
same,normalised viability,[2]; 30 nM,103%
same,normalised viability,[3]; 30 nM,90.4%
same,normalised viability,[4]; 30 nM,75.9%
same,normalised viability,[5]; 30 nM,95%
same,normalised viability,[6]; 30 nM,72.9%
same,normalised viability,[7]; 10 nM,92.9%
same,normalised viability,[8]; 1 nM,87.2%
same,normalised viability,[9]; 10 nM,78.9%
same,normalised viability,[10]; 1 nM,105%
same,normalised viability,[11]; 10 nM,78.1%
same,normalised viability,[12]; 10 nM,98.4%
same,normalised viability,[13]; 1 nM,97.6%
same,normalised viability,[14]; 10 nM,78.1%
same,normalised viability,[15]; 10 nM,65.8%
same,normalised viability,[16]; 1 nM,92.7%
same,normalised viability,[17]; 300 nM,90.7%
same,normalised viability,[18]; 300 nM,101%
same,normalised viability,[19]; 300 nM,103%
same,normalised viability,[20]; 300 nM,86.2%
same,normalised viability,[21]; 300 nM,98.8%
same,normalised viability,[22]; 300 nM,88.3%
same,normalised viability,[23]; 1000 nM,74.1%
same,normalised viability,[24]; 1000 nM,113%
same,normalised viability,[25]; 1000 nM,102%
same,normalised viability,[26]; 1000 nM,77.9%
same,normalised viability,[27]; 1000 nM,83.4%
same,normalised viability,[28]; 1000 nM,94.6%
Cc1ccc(-c2cc(C(F)(F)F)nn2-c2ccc(S(N)(=O)=O)cc2)cc1 [Celecoxib],normalised viability,[1]; 300 nM,97%
same,normalised viability,[2]; 300 nM,88%
same,normalised viability,[3]; 300 nM,70.2%
same,normalised viability,[4]; 300 nM,92.5%
same,normalised viability,[5]; 300 nM,96%
same,normalised viability,[6]; 300 nM,72.2%
same,normalised viability,[7]; 100 nM,92.3%
same,normalised viability,[8]; 10 nM,100%
same,normalised viability,[9]; 100 nM,88.4%
same,normalised viability,[10]; 10 nM,76.9%
same,normalised viability,[11]; 100 nM,83.1%
same,normalised viability,[12]; 100 nM,110%
same,normalised viability,[13]; 10 nM,96.9%
same,normalised viability,[14]; 100 nM,108%
same,normalised viability,[15]; 100 nM,83.3%
same,normalised viability,[16]; 10 nM,109%
same,normalised viability,[17]; 3000 nM,99.5%
same,normalised viability,[18]; 3000 nM,89.3%
same,normalised viability,[19]; 3000 nM,77.6%
same,normalised viability,[20]; 3000 nM,91.7%
same,normalised viability,[21]; 3000 nM,96.6%
same,normalised viability,[22]; 3000 nM,83.9%
same,normalised viability,[23]; 10000 nM,90.6%
same,normalised viability,[24]; 10000 nM,55.1%
same,normalised viability,[25]; 10000 nM,63.4%
same,normalised viability,[26]; 10000 nM,34%
same,normalised viability,[27]; 10000 nM,68.5%
same,normalised viability,[28]; 10000 nM,80.3%
